# Measurements from patent publication US20220380314A1, “SUBSTITUTED, SATURATED AND UNSATURATED N-HETEROCYCLIC CARBOXAMIDES AND RELATED COMPOUNDS FOR THEIR USE IN THE TREATMENT OF MEDICAL DISORDERS” (Bial - R&D Investments, S.A., priority 2019, published 2022).
# Legend:
# acid ceramidase (hACR) = target: T1, acid ceramidase (hACR) (Homo sapiens, UniProt Q13510); experiment: Acid ceramidase inhibition, biochemical fluorescent assay with cell lysates overexpressing acid ceramidase, substrate Rbm14-12; conditions: cell lysates overexpressing acid ceramidase; 1 hr preincubation at RT; pH 4.5; substrate Rbm14-12 6.3 μM; read-out: hACR IC50
# T1 construct: expressed in transfected cells; cell lysate used
# T1 sequence (Q13510 143-395 limits assumed): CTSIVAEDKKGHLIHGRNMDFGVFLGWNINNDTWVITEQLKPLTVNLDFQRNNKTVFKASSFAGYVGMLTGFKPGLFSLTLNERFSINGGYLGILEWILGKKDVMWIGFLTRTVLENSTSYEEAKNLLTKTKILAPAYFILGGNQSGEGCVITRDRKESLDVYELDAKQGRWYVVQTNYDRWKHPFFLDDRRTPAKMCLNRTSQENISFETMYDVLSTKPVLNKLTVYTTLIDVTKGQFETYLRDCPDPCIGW
# T1 sequence (Q13510 22-142 limits assumed): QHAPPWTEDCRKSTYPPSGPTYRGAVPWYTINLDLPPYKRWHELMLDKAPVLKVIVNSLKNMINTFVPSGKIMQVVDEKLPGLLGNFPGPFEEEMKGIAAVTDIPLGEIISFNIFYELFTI
# How it was run: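 Enzyme source was lysate (10 µg protein) from cells overexpressing acid ceramidase, preincubated 1 hr at RT with compound dose series in 25 mM NaAc, 100 mM NaCl, pH 4.5. Rbm14-12 (6.3 μM final) reacted 1 hr at RT; stop buffer (methanol, NaIO4, glycine, pH 10.6) 1 hr, fluorescence ex360/em446; IC50 from four-parameter fit.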
# [1] = Compound solubility in water; assay type: physicochemical
Compound,IC50 (acid ceramidase (hACR)) [µM],solubility [1] [µM]
"CC1(C)COc2ccccc2N1C(=O)NCCc1ccccc1 [Example 16, 3,3-Dimethyl-N-phenethyl-2H-benzo[b][1,4]oxazine-4(3H)-carboxamide]",> 1,3.1
"CC1(C)CCc2ccccc2N1C(=O)NCCc1ccccc1 [Example 6, 2,2-Dimethyl-N-phenethyl-3,4-dihydroquinoline-1(2H)-carboxamide]",0.2 to 1,3.2
"CC1(C)CCc2cccnc2N1C(=O)NCCc1ccccc1 [Example 8, 2,2-Dimethyl-N-phenethyl-3,4-dihydro-1,8-naphthyridine-1(2H)-carboxamide]",> 1,27.4
"O=C(NCCc1ccccc1)N1CCCCC12CCCC2 [Example 45, N-Phenethyl-6-azaspiro[4.5]decane-6-carboxamide]",0.2 to 1,6
"CCCCNC(=O)N1c2ccccc2CCC1(C)C [Example 27, N-Butyl-2,2-dimethyl-3,4-dihydroquinoline-1(2H)-carboxamide]",0.2 to 1,16.8
"C=CCCCCNC(=O)N1CCC2(CCCCO2)CC1(C)C (stereo not shown) [Example 44, N-(Hex-5-en-1-yl)-8,8-dimethyl-1-oxa-9-azaspiro[5.5]undecane-9-carboxamide]",0.2 to 1,20.8
"CC1(C)CC2(CCCCO2)CCN1C(=O)NCCCCC1CC1 (stereo not shown) [Example 43, N-(4-Cyclopropylbutyl)-8,8-dimethyl-1-oxa-9-azaspiro[5.5]undecane-9-carboxamide]",0.2 to 1,16.5
"O=C(NCCCc1ccc(F)cc1)N1CCCCC12CCCC2 [Example 58, N-(3-(4-Fluorophenyl)propyl)-6-azaspiro[4.5]decane-6-carboxamide]",< 0.2,3
"CC1(C)CC2(CCCCO2)CCN1C(=O)NCCc1ccccc1 (stereo not shown) [Example 17, 8,8-Dimethyl-N-phenethyl-1-oxa-9-azaspiro[5.5]undecane-9-carboxamide]",0.2 to 1,28.5
"Cn1ccnc1-c1ccc2c(c1)N(C(=O)NCCc1ccccc1)C(C)(C)CC2 [Example 12, 2,2-Dimethyl-7-(1-methyl-1H-imidazol-2-yl)-N-phenethyl-3,4-dihydroquinoline-1(2H)-carboxamide]",> 1,26.6

# Second part, the compound after the results:
IC50 (acid ceramidase (hACR)) [µM],solubility [1] [µM],Compound
0.2 to 1,36.4,"CN1CCN(c2ccc3c(c2)CCC(C)(C)N3C(=O)NCCc2ccccc2)CC1 [Example 30, 2,2-Dimethyl-6-(4-methylpiperazin-1-yl)-N-phenethyl-3,4-dihydroquinoline-1(2H)-carboxamide]"
> 1,7.1,"CC1(C)CC(c2ccccc2)CCN1C(=O)NCCOCc1ccccc1 (stereo not shown) [Example 75, N-(2-Benzyloxyethyl)-2,2-dimethyl-4-phenylpiperidine-1-carboxamide]"
> 1,7,"CC(C)CCNC(=O)N1CCN(c2ccccc2)CC1(C)C [Example 42, N-iso-Pentyl-2,2-dimethyl-4-phenylpiperazine-1-carboxamide]"
0.2 to 1,92.9,"COc1ccc(C2COCC(C)(C)N2C(=O)NCCF)cc1 (stereo not shown) [Example 154, N-(2-Fluoroethyl)-5-(4-methoxyphenyl)-3,3-dimethylmorpholine-4-carboxamide]"
0.2 to 1,21.4,"CC1(C)CC(F)(F)CCN1C(=O)NCCCC1(C(F)(F)F)CC1 [Example 72, 4,4-Difluoro-2,2-dimethyl-N-(3-(1-(trifluoromethyl)cyclopropyl)propyl)piperidine-1-carboxamide]"
< 0.2,> 100,"CC1(C)CC(N2CCCCC2)CCN1C(=O)NCCCCc1ccccc1 (stereo not shown) [Example 83, 2,2-Dimethyl-N-(4-phenylbutyl)-4-(1-piperidyl)piperidine-1-carboxamide]"
> 1,35.5,"CN1CC(N2CC(c3ccc4c(c3)N(C(=O)NCCc3ccccc3)C(C)(C)CC4)C2)C1 [Example 69, 2,2-Dimethyl-7-(1′-methyl-[1,3′-biazetidin]-3-yl)-N-phenethyl-3,4-dihydroquinoline-1(2H)-carboxamide]"
